Results as given in PMC11593002 (Current Issues in Molecular Biology, 2024).
Values joined by “and” are separate entries in the source; they are usually repeats but may differ in a detail not shown here. Equal entries are not always repeated. “Also recorded” adds a separate entry of the source.

Experiments:
MCF-10A = experiment: MTT-dye reduction antiproliferative assay, MCF-10A; format: cell-based; conditions: for IC50: Homo sapiens
Excerpt: (§1) Breast cell lines (MCF-10A, MCF-7, and MDA-MB-231) were purchased from the American Type Culture Collection—ATCC (Manassas, VA, USA). MCF-7 and MDA-MB-231 were cultivated in Dulbecco’s modified Eagle’s medium (DMEM), supplemented with 10% fetal bovine serum (FBS), 1% sodium pyruvate, and 1% MEM non-essential amino acids (NEAA) without antibiotics. The non-tumorigenic cell line (MCF-10A) was cultivated in DMEM medium (Sigma-Aldrich, St. Louis, MO, USA) and supplemented with 10% FBS, 1% sodium pyruvate, 1% non-essential amino acids (NEAA), 20 ng/mL human epidermal growth factor (hEGF), 10 μg/mL insulin, and 0.5 μg/mL hydrocortisone without antibiotics. All cell lines were maintained in a humidified atmosphere with 5% CO2 at 37 °C.
(§2) The antiproliferative activity was tested via using the standard MTT-dye reduction assay described by Mosmann. The method is based on the metabolism of the tetrazolium salt MTT to insoluble formazan. The formazan absorption was registered using a microplate reader at λ = 540 nm. The measured absorption is an indicator of cell viability and metabolic activity.

MCF-7 [1] = experiment: MTT-dye reduction antiproliferative assay, MCF-7; format: cell-based; conditions: for increase in IC50: drug + Iscador Qu, concentration not given
Excerpt: as §1, §2

MDA-MB-231 [2] = experiment: MTT-dye reduction antiproliferative assay, MDA-MB-231; format: cell-based
Excerpt: as §1, §2

MDA-MB-231 [3] = experiment: Cell cycle analysis by propidium iodide staining (FACS), MDA-MB-231; format: cell-based; conditions: for effect on cell cycle of combination vs anticancer drug alone: drug + Iscador Qu (selected combinations); for effect on cell cycle: treatment alone
Description: (§3) After trypsinization, the cells (MCF7, MDA-MB-231, and MCF10A) were resuspended in medium + 10% FCS and centrifuged (1000 rpm, 5 min); then, the pellet was suspended in PBS (1 mL) and fixed with EtOH. After suspension in 2.5 mL pre-cold 70% EtOH, the cells were incubated on ice for 15 min. The staining procedure was as follows: The pellet was suspended in a 500 μL PI solution in PBS (final concentration of PI 1 μg/mL) and 0.1 mg/mL RNAse A, and 0.05% Triton X-100 was added. Following the incubation for 10 min at 37 °C, the cells were transferred to the flow cytometer, and cell fluorescence was measured. The samples were measured by flow cytometry (LSR II, BD Biosciences, Franklin Lakes, NJ, USA) and analyzed using BD FACS DIVA software v. 6.1.3 (BD Biosciences). The control samples of all cell lines underwent the same treatment but without the adding any anticancer drugs or Iscador Qu.
(§4) In the search of the mechanism of action, the cell cycle arrest induced after treatment with the selected combinations was analyzed. The cell aliquots were collected, and FACS analyses were used to detect the effects of the treatments. A propidium iodide staining assay was performed (Figures S1 and S2).

microtubule = tested on: microtubule; set-up: method as in PMID 7670132; conditions: cited from earlier work
MCF-7 [4] = experiment: Cell cycle analysis by propidium iodide staining (FACS), MCF-7; format: cell-based; conditions: for effect on cell cycle of combination vs anticancer drug alone: drug + Iscador Qu (selected combinations); for effect on cell cycle: mono treatment
Description: as §3, §4

[5] = drug + Iscador Qu 10 µg/mL vs drug alone
[6] = drug + Iscador Qu 20 µg/mL vs drug alone
[7] = MDA-MB-231, drug + Iscador Qu 40 µg/mL vs drug alone
[8] = MDA-MB-231, drug + Iscador Qu 80 µg/mL vs drug alone
[9] = Iscador Qu both concentrations (50 or 100 µg/mL) or not specified
[10] = drug + Iscador Qu 50 µg/mL vs drug alone
[11] = drug + Iscador Qu 100 µg/mL vs drug alone
[12] = higher Iscador Qu concentration (20 µg/mL)
[13] = Iscador Qu both concentrations (10 and 20 µg/mL) or not specified
[14] = MDA-MB-231, Iscador Qu both concentrations (40 and 80 µg/mL) or not specified

O=c1[nH]cc(F)c(=O)[nH]1 [5-Fluorouracyl, 5-Fluorouracil]
effect of combined treatment with Iscador Qu on IC50 / antiproliferative effect (MCF-10A; Iscador Qu 50 µg/mL): did not change the antiproliferative properties | effect of combined treatment with Iscador Qu on IC50 / antiproliferative effect (MCF-10A; Iscador Qu 100 µg/mL): slightly decreased | IC50 (MCF-7 [1]; Homo sapiens, MCF7, drug alone): 6790 nM | fold decrease in IC50 (MCF-7 [1]; [5]): 1.5 fold | fold decrease in IC50 (MCF-7 [1]; [6]): 2.7 fold | reduction in IC50 (MCF-7 [1]; [6]): ~65% | IC50 (MDA-MB-231 [2]; Homo sapiens, MDA-MB-231, drug alone): 2040 nM | fold decrease in IC50 (MDA-MB-231 [2]; [7]): 1.2 fold | fold decrease in IC50 (MDA-MB-231 [2]; [8]): 1.5 fold | reduction in IC50 (MDA-MB-231 [2]; [8]): about 30% | lesser reduction in IC50 in MDA-MB-231 compared to MCF-7 (MDA-MB-231 [2]; combination with Iscador Qu): 33%

N.N.[Cl][Pt][Cl] [Cisplatin, cis-diamminedichloroplatinum (II)]
effect of combined treatment with Iscador Qu on IC50 / antiproliferative effect (MCF-10A; [9]): enhanced the antiproliferative effect | Relative Change of IC50 (%) (MCF-7 [1]; [5]): 8.36% | Relative Change of IC50 (%) (MCF-7 [1]; [6]): −29.37% | reduction in IC50 (MCF-7 [1]; [6]): 30% | Relative Change of IC50 (%) (MDA-MB-231 [2]; [7]): 56.77% | Relative Change of IC50 (%) (MDA-MB-231 [2]; [8]): 43.80% | increase in IC50 (MDA-MB-231 [2]; [8]): 44% | fold increase in IC50 (reduced antiproliferative effect) (MDA-MB-231 [2]; MDA-MB-231, drug + Iscador Qu, concentration not given): 1.5 fold and 1.6 fold | effect on cell cycle of combination vs anticancer drug alone (MDA-MB-231 [3]): did not alter the effect | effect on cell cycle (MDA-MB-231 [3]): blocked the cells in the S phase

CC(=O)O[C@@]12CO[C@@H]1C[C@H](O)[C@@]1(C)C(=O)[C@H](O)C3=C(C)[C@@H](OC(=O)[C@H](O)[C@@H](NC(=O)OC(C)(C)C)c4ccccc4)C[C@@](O)([C@@H](OC(=O)c4ccccc4)[C@H]21)C3(C)C [Docetaxel]
IC50 (MCF-10A; drug + Iscador Qu 50 µg/mL): ~4.2 nM | IC50 (MCF-10A; drug + Iscador Qu 100 µg/mL): ~4.2 nM | IC50 (MCF-10A; single treatment with drug): 5.18 nM | effect of combined treatment with Iscador Qu on IC50 / antiproliferative effect (MCF-10A; [9]): slightly reduced | fold decrease in IC50 (MCF-10A; [10]): 1.2 fold | fold decrease in IC50 (MCF-10A; [11]): 1.2 fold | effect of combined treatment with Iscador Qu on IC50 / antiproliferative effect (MCF-7 [1]; [12]): very slight IC50 decrease | effect of combined treatment with Iscador Qu on IC50 / antiproliferative effect (MCF-7 [1]; low Iscador Qu concentration (10 µg/mL)): IC50 increase | potency as an inhibitor of microtubule depolymerization compared to Paclitaxel (microtubule): 2 fold | fold decrease in IC50 (MDA-MB-231 [2]; [7]): more than 2 fold | fold decrease in IC50 (MDA-MB-231 [2]; [8]): 4 fold | reduction in IC50 (MDA-MB-231 [2]; [8]): 72% | effect on cell cycle of combination vs anticancer drug alone (MDA-MB-231 [3]): did not alter the effect | effect on cell cycle (MDA-MB-231 [3]): cell cycle arrest in the G0 phase

COc1cccc2c1C(=O)c1c(O)c3c(c(O)c1C2=O)C[C@@](O)(C(=O)CO)C[C@@H]3O[C@H]1C[C@H](N)[C@H](O)[C@H](C)O1 [Doxorubicin]
fold decrease in IC50 (MCF-10A; [10]): about 2 fold | fold decrease in IC50 (MCF-10A; [11]): about 2 fold | fold decrease in IC50 (MCF-7 [1]; [5]): about 2 fold | reduction in IC50 dose (MCF-7 [1]; [5]): 50% | fold decrease in IC50 (MCF-7 [1]; [6]): about 2 fold | reduction in IC50 dose (MDA-MB-231 [2]; [7]): 21%

COc1cccc2c1C(=O)c1c(O)c3c(c(O)c1C2=O)C[C@@](O)(C(=O)CO)C[C@@H]3O[C@H]1C[C@H](N)[C@@H](O)[C@H](C)O1 [Epirubicin]
IC50 (MCF-10A; drug alone): 387000 nM | fold decrease in IC50 (MCF-10A; [11]): 2 fold | effect of combined treatment with Iscador Qu on IC50 / antiproliferative effect (MCF-7 [1]; [13]): did not exhibit significant sensitivity; also recorded: No effect | fold decrease in IC50 (MDA-MB-231 [2]; [7]): 2 fold | fold decrease in IC50 (MDA-MB-231 [2]; [8]): 2 fold | reduction in IC50 (MDA-MB-231 [2]; [8]): 47%

CCc1c2c(nc3ccc(OC(=O)N4CCC(N5CCCCC5)CC4)cc13)-c1cc3c(c(=O)n1C2)COC(=O)[C@]3(O)CC [Irinotecan]
effect of combined treatment with Iscador Qu on IC50 / antiproliferative effect (MCF-10A; [9]): did not affect IC50 | effect of combined treatment with Iscador Qu on IC50 / antiproliferative effect (MCF-7 [1]; [13]): did not affect IC50; also recorded: No effect | effect of combined treatment with Iscador Qu on IC50 / antiproliferative effect (MDA-MB-231 [2]; [14]): very slight IC50 decrease; also recorded: No significant alteration in IC50

CN(Cc1cnc2nc(N)nc(N)c2n1)c1ccc(C(=O)N[C@@H](CCC(=O)O)C(=O)O)cc1 [Methotrexate]
effect of combined treatment with Iscador Qu on IC50 / antiproliferative effect (MCF-10A; Iscador Qu 50 µg/mL): did not reduce the IC50 dose | effect of combined treatment with Iscador Qu on IC50 / antiproliferative effect (MCF-10A; Iscador Qu 100 µg/mL): slightly increased | effect of combined treatment with Iscador Qu on IC50 / antiproliferative effect (MCF-7 [1]; [13]): No effect | effect of combined treatment with Iscador Qu on IC50 / antiproliferative effect (MCF-7 [1]; Iscador Qu both concentrations (10 and 20 µg/mL) or not specified, listed as methotrexate): did not exhibit any sensitivity | fold decrease in IC50 (MDA-MB-231 [2]; [8]): 1.5 fold | reduction in IC50 (MDA-MB-231 [2]; [8]): about 30%

O=C(c1cc(Cc2n[nH]c(=O)c3ccccc23)ccc1F)N1CCN(C(=O)C2CC2)CC1 [Olaparib]
effect on cell cycle of combination vs anticancer drug alone (MCF-7 [4]): no significant difference | effect on cell cycle (MCF-7 [4]): arrest in the G2/M phase | effect of combined treatment with Iscador Qu on IC50 / antiproliferative effect (MCF-10A; [9]): slight decrease in IC50 dose | effect of combined treatment with Iscador Qu on IC50 / antiproliferative effect (MCF-7 [1]; [13]): antagonistic effect; also recorded: increase in IC50 dose | increase in IC50 (MCF-7 [1]): 37% | effect of combined treatment with Iscador Qu on IC50 / antiproliferative effect (MCF-7 [1]; [12]): negative treatment effect | effect of combined treatment with Iscador Qu on IC50 / antiproliferative effect (MDA-MB-231 [2]; MDA-MB-231, Iscador Qu 40 µg/mL): negative treatment effect | effect of combined treatment with Iscador Qu on IC50 / antiproliferative effect (MDA-MB-231 [2]; [14]): increase in IC50 dose | increase in IC50 (MDA-MB-231 [2]; [8]): 22%

O=C1[O][Pt]2([NH][C@@H]3CCCC[C@H]3[NH]2)[O]C1=O [Oxaliplatin]
effect on cell cycle of combination vs anticancer drug alone (MCF-7 [4]): no significant difference | effect on cell cycle (MCF-7 [4]): arrest in the G2/M phase | effect of combined treatment with Iscador Qu on IC50 / antiproliferative effect (MCF-10A; [9]): increased the antiproliferative effect | effect of combined treatment with Iscador Qu on IC50 / antiproliferative effect (MCF-7 [1]; [13]): increased the antiproliferative effect | Relative Change of IC50 (%) (MCF-7 [1]; [5]): −47.30% | fold decrease in IC50 (MCF-7 [1]; [5]): ~2 fold | Relative Change of IC50 (%) (MCF-7 [1]; [6]): −80.76% | fold decrease in IC50 (MCF-7 [1]; [6]): 5.2 fold | reduction in IC50 (MCF-7 [1]; [6]): 81% | effect of combined treatment with Iscador Qu on IC50 / antiproliferative effect (MDA-MB-231 [2]; [14]): increased the antiproliferative effect | Relative Change of IC50 (%) (MDA-MB-231 [2]; [7]): −48.45% | fold decrease in IC50 (MDA-MB-231 [2]; [7]): 1.9 fold | Relative Change of IC50 (%) (MDA-MB-231 [2]; [8]): −69.56% | fold decrease in IC50 (MDA-MB-231 [2]; [8]): 3.3 fold | reduction in IC50 (MDA-MB-231 [2]; [8]): 70%

CN(C)C(=O)c1cc2cnc(Nc3ccc(N4CCNCC4)cn3)nc2n1C1CCCC1 [Ribociclib]
effect of combined treatment with Iscador Qu on IC50 / antiproliferative effect (MCF-10A; [9]): did not significantly affect | fold decrease in IC50 (MCF-7 [1]; [5]): 2 fold | fold decrease in IC50 (MCF-7 [1]; [6]): 3 fold | reduction in IC50 (MCF-7 [1]; [6]): ~65% | effect of combined treatment with Iscador Qu on IC50 / antiproliferative effect (MDA-MB-231 [2]; [14]): did not significantly affect; also recorded: No significant alteration in IC50

CC/C(=C(\c1ccccc1)c1ccc(OCCN(C)C)cc1)c1ccccc1 [Tamoxifen]
increase in IC50 (MCF-7 [1]): 31%
